Experimental data published in patent US4734376A, “Process for the spectrophotometric measurement of lithium ion employing a chromogenic aza-12-crown-4- ether” (The President & Trustees of the Miami University, priority 1986, dated 1988).
Entries after “also recorded” stand apart in the source; their conditions may differ. Where two headings read alike, the source gives them in different places. Blank lines part the entries; values can stand above or below the molecule they belong to.

Experiments:
[1] = cited from earlier work
[2] = Determination of acid dissociation constants K1 and K2 by spectrophotometric titration; type: physicochemical; settings: μ = 0.1 (CsCl), aqueous
Method: A 50 ml aqueous solution containing the crown reagent of Example 5 (8.70×10^-5 M), hydrochloric acid (6×10^-4 M), and cesium chloride (0.1 M) was titrated with potassium hydroxide [0.1 M (below pH12), and 1 M (above pH12)], using a Metrohm automatic titrator, Dosimat E535 equipped with Potentiograph E536. The titration was interrupted in every 0.3-1.5 pH increase for the measurement of the absorption spectrum of the solution. A 3-4 ml portion of the solution was taken to a cuvette, the spectrum was recorded on a Hewlett-Packard 8450A spectrometer, and the solution was returned to the titration vessel using a pipet. The magnitude of the spectrum was corrected in order to adjust for dilution upon titration, and corrected results shown in FIG. 1.
[formula] where K1 and K2 denote the acid dissociation constants, and KML a complex formation constant. By assuming no significant complex-formation, an absorbance A at any wavelength and the total concentration of the reagent [HL]t are written as
A=εHLH.spsb.+ [HLH^+ ]+εHL
[HL]+εLL.spsb.- [L^- ] (4)
[HL]t =[HLH^ […] ]+[HL]+[L^- ] (5)
where ε's are molar absorption coefficients. […]
At 342.8 nm and at pH ≥9.7, the absorbance deviating from the isosbestic point reflects the decay of HL and the growth of L-, so that these absorbance data can be used for the evaluation of -logK2 using Eq. (7). […]

[3] = Determination of extraction constant KML^ex, lithium ion; type: physicochemical; settings: for -log K^ex LiL (extraction constant): solvent chloroform
Description: (§1) Extraction equilibria are illustrated in FIG. 2 and in the following equation: [formula] where [M^+ ]t denotes a total alkali metal concentration. By assuming [L^-a ]>>[HLa ]+[MLa ], and [M^+ ]t >>[HL]t,
(§2) [HL]t =[HLo ]+[MLo ]+[L^-a ] (12)
(§3) Combining Eq. (8), (11), (12), and (13) gives [formula] where Δε=εMLo -εHLo, and E° denotes the E value in the absence of the metal ion in the system (E°=^ε HLo). […] The absorbance at the isosbestic point 401.4 nm shown in FIG. 1 gives εL.spsb.-.sbsb.a, so that the values of E and Eo, which are necessary for the plot, can be obtained experimentally.
(§4) Determination of the partition equilibrium system was made in a manner similar to that employed in Example 7. The concentrations [HL]t, [M^+ ]t, and [OH^- ] were 5.35×10^-5 M, 4×10^-3 M-2 M (as chloride), and 10^-2 M-10^-1 M (as potassium hydroxide), respectively. Chloroform was used as the organic medium.
(§5) In order to confirm the important assumption [La^- ]>>[HLa]+[MLa ], Eq.(11) (the left equation) was used for the evaluation of E instead of Eq.(15), which was derived from Eq.(11) under the assumption, and the obtained extraction constants compared with those obtained using Eq.(15). When Eq.(11) was applied, the species HLo and MLo in the organic layer were extracted into 0.1M hydrochloric acid as HLH^+, and the concentration of HLH+was determined spectrophotometrically and equated to [HLo ]+[MLo ]in Eq.(11). The extraction constants obtained in this way are […]

[4] = Determination of extraction constant KML^ex, sodium ion; type: physicochemical; settings: for -log K^ex NaL (extraction constant): solvent chloroform
Description: as §1, §2, §3, §4, §5

[5] = Effect of sodium ion on lithium determination; type: physicochemical; settings: 30-fold excess of sodium ions to lithium ions (Na+:Li+ weight ratio 30:1); versus Li+ alone; chloroform layer (Example 9: 400 nm)
Method: The effect of sodium ion in the system was determined in a procedure similar to that used in Example 7. A series of six round-bottomed flasks containing 5 ml of chloroform, and 5 ml of an aqueous solution containing aza-12-crown-4 reagent (6.7×10^-4 M), lithium chloride (1×10^-4 =0.694 μg ml^-1), and a variable amount of sodium chloride [sodium chloride was added to five of these flasks in 0.001M increments whereby the [NaCl]aq =1×10^-3 M to 5×10^-3 M (23 μg ml^-1 through 115 μg ml^-1); one flask served as a sodium-free blank]. Absorbance of the organic layer was measured on a spectrophotomer. The results are illustrated in FIG. 4.

[6] = Effect of organic solvents and bases on response to lithium and sodium ion; type: physicochemical
Method: Three solvents--chloroform, 1,2-dichloroethane and methylene chloride--werecompared using potassium hydroxide and sodium hydroxide as bases. […] At 0.1M hydroxide, however, large differences were observed both between the cations and between the organic solvents. […] The best stability of the absorbance after the separation of organic layer from the equilibrium system was also observed for this system.
Various other organic solvents were tested as organic media with a 0.01 M potassium hydroxide.

[7] = pH dependence of the structures; type: physicochemical
[8] = μ = 0.1 (CH3)4NCl; reported by Nakamura et al; cited from earlier work
[9] = solvent 1,2-dichloroethane; pH not specified; reported by Nakamura et al; cited from earlier work
[10] = obtained using Eq. (11), organic species back-extracted into 0.1M hydrochloric acid, chloroform

SMILES: C1COCCN2CCOCCN(CCO1)CCOCC2 [cryptand [2,1,1]]
sensitivity to lithium ions ([1]; cryptand itself, without ion pairing agent): not sensitive to lithium ions | extraction of lithium ions compared with reagent of Nakamura et al ([1]; with ion pairing agent resazurin): more selectively and more efficiently

SMILES: O=[N+]([O-])c1ccc(O)c(CN2CCOCCOCCOCC2)c1 [aza-12-crown-4, 1-(2-oxy-5-nitrobenzyl)-1-hydro-1-aza-4,7,10-trioxacyclododecane]
-log K1 (acid dissociation constant) [2]: 5.77 | -log K2 (acid dissociation constant; pK2) [2]: 10.31 | -log K^ex LiL (extraction constant) ([3]; 0.05M KOH): 10.23 | -log K^ex LiL (extraction constant) ([3]; 0.1M KOH): 10.18 | dependence of -log KLiL^ex on hydroxide concentration ([3]; 10^-2 M-10^-1 M KOH, chloroform): not significantly dependent on the hydroxide concentration employed | ratio of KLiL^ex to KNaL^ex (selectivity) ([3]; compared with aza-15-crown-5): much greater than the aza-15-crown5 | KLiL^ex smaller than that of prior art aza-15-crown-5, factor ([3]; compared with prior art aza-15-crown-5): smaller by a factor of ten | -log KLiL^ex (extraction constant) [3, 10]: 10.25 | -log K^ex NaL (extraction constant) ([4]; 0.05M KOH): 12.49 | -log K^ex NaL (extraction constant) ([4]; 0.1M KOH): 12.50 | -log KNaL^ex (extraction constant) [4, 10]: 12.47 | increase in absorbance in presence of sodium ion [5]: 8% | sensitivity and interference differences between bases and solvents ([6]; 0.01 M hydroxide, chloroform, 1,2-dichloroethane, methylene chloride, KOH and NaOH): no significant sensitivity and interference differences were observed | sensitivity and sodium interference, bases and solvents ([6]; 0.1M hydroxide, chloroform, 1,2-dichloroethane, methylene chloride, KOH and NaOH): Potassium hydroxide gave higher sensitivity in both chloroform and methylene chloride than sodium hydroxide, but not in 1,2-dichloroethane; also recorded: Methylene chloride exhibited the highest sensitivity when used with potassium hydroxide, but was subject to increased interference by sodium ions; also recorded: The combination of methylene chloride and sodium hydroxide allowed most of the reagent to pass into the organic layer; also recorded: optimum combination of high sensitivity, low interference, and low blank absorption was achieved by a system employing 0.1M potassium hydroxide and chloroform | response / extraction by organic solvent ([6]; organic solvents tested with 0.01 M potassium hydroxide): no response of the reagent to lithium and sodium ion was observed; also recorded: Methyisobutyl-ketone showed only slight extraction of the metal complex; also recorded: No extraction occurred into benzene, carbon tetrachloride, chlorobenzene, and trichlorethylene | response with triethylamine as base ([6]; triethylamine 1M in CHCl3, compared with KOH): the response to lithium ions was smaller and the response to sodium ions was larger | response with triethylamine plus sodium hydroxide ([6]; triethylamine 1M in CHCl3 and sodium hydroxide 0.1M): intermediate response to lithium ions, and the response was not stable | pH at which the structure predominates ([7]; listed as iii): approximately 8

SMILES: O=[N+]([O-])c1ccc(O)c(CN2CCOCCOCCOCCOCC2)c1 [aza-15-crown-5, N-(2-hydroxy-5-nitrobenzyl)-aza-15-crown-5]
-log K1 (acid dissociation constant) [8]: 5.79 | -log K2 (acid dissociation constant) [8]: 9.69 | -log K^ex LiL (extraction constant) ([1]; solvent 1,2-dichloroethane, pH not specified, reported by Nakamura et al): 9.15 | -log K^ex NaL (extraction constant) [9]: 9.76

The remaining lines, values ahead:

pH at which the structure predominates [7]: greater than 11
SMILES: O=[N+]([O-])c1ccc(O)c(CN2CCOCCOCCOCC2)c1 [ii, 1-(2-oxy-5-nitrobenzyl)1-aza-4,7,10-trioxacyclododecane]

pH at which the structure predominates [7]: less than 5
SMILES: O=[N+]([O-])c1ccc(O)c(CN2CCOCCOCCOCC2)c1 [i, 1-(2-hydroxy-5-nitrobenzyl)-1-hydro-1-aza-4,7,10-trioxacyclododecane]
